From patent publication US20040063662A1, “Selenophene anti-tumor agents” (priority 1996, published 2004)

Assays:
HOP-92 = assay: NCI human tumor cell panel: HOP-92 (Non-Small Cell Lung Cancer)
OVCAR-8 = assay: NCI human tumor cell panel: OVCAR-8 (Ovarian Cancer); format: cell-based; settings: OVCAR-8, Ovarian Cancer
HCT-116 = assay: NCI human tumor cell panel: HCT-116 (Colon Cancer); format: cell-based; settings: HCT-116, Colon Cancer
EKVX = assay: NCI human tumor cell panel: EKVX (Non-Small Cell Lung Cancer); format: cell-based; settings: Non-Small Cell Lung Cancer
NCI-H522 = assay: NCI human tumor cell panel: NCI-H522 (Non-Small Cell Lung Cancer)
OVCAR-3 = assay: NCI human tumor cell panel: OVCAR-3 (Ovarian Cancer); format: cell-based; settings: OVCAR-3, Ovarian Cancer
A549/ATCC = assay: NCI human tumor cell panel: A549/ATCC (Non-Small Cell Lung Cancer); format: cell-based; settings: Non-Small Cell Lung Cancer
MOLT-4 = assay: NCI human tumor cell panel: MOLT-4 (Leukemia); format: cell-based; settings: MOLT-4, Leukemia
SN12C = assay: NCI human tumor cell panel: SN12C (Renal Cancer); format: cell-based; settings: Renal Cancer
NCI-H23 = assay: NCI human tumor cell panel: NCI-H23 (Non-Small Cell Lung Cancer); format: cell-based; settings: NCI-H23, Non-Small Cell Lung Cancer
BT-549 = assay: NCI human tumor cell panel: BT-549 (Breast Cancer); format: cell-based; settings: BT-549, Breast Cancer
HCT-15 = assay: NCI human tumor cell panel: HCT-15 (Colon Cancer); format: cell-based; settings: HCT-15, Colon Cancer
PC-3 = assay: NCI human tumor cell panel: PC-3 (Prostate Cancer); format: cell-based; settings: PC-3, Prostate Cancer
SF-539 = assay: NCI human tumor cell panel: SF-539 (CNS Cancer); format: cell-based; settings: SF-539, CNS Cancer
MDA-N = assay: NCI human tumor cell panel: MDA-N (Breast Cancer); format: cell-based; settings: Breast Cancer
LOX IMVI = assay: NCI human tumor cell panel: LOX IMVI (Melanoma); format: cell-based; settings: Melanoma
SF-295 = assay: NCI human tumor cell panel: SF-295 (CNS Cancer); format: cell-based; settings: SF-295, CNS Cancer
ACHN = assay: NCI human tumor cell panel: ACHN (Renal Cancer); format: cell-based; settings: Renal Cancer
SW-620 = assay: NCI human tumor cell panel: SW-620 (Colon Cancer); format: cell-based; settings: SW-620, Colon Cancer
UO-31 = assay: NCI human tumor cell panel: UO-31 (Renal Cancer); format: cell-based; settings: UO-31, Renal Cancer
OVCAR-4 = assay: NCI human tumor cell panel: OVCAR-4 (Ovarian Cancer); format: cell-based; settings: OVCAR-4, Ovarian Cancer
RPMI-8226 = assay: NCI human tumor cell panel: RPMI-8226 (Leukemia); format: cell-based; settings: RPMI-8226, Leukemia
U251 = assay: NCI human tumor cell panel: U251 (CNS Cancer); format: cell-based; settings: U-251, U251, CNS Cancer
MALME-3M = assay: NCI human tumor cell panel: MALME-3M (Melanoma); format: cell-based; settings: MALME-3M, Melanoma
CCRF-CEM = assay: NCI human tumor cell panel: CCRF-CEM (Leukemia); format: cell-based; settings: Leukemia
UACC-62 = assay: NCI human tumor cell panel: UACC-62 (Melanoma); format: cell-based; settings: UACC-62, Melanoma
HT29 = assay: NCI human tumor cell panel: HT29 (Colon Cancer); format: cell-based; settings: HT-29, HT29, Colon Cancer
HS 578T = assay: NCI human tumor cell panel: HS 578T (Breast Cancer); format: cell-based; settings: Breast Cancer
SNB-19 = assay: NCI human tumor cell panel: SNB-19 (CNS Cancer); format: cell-based; settings: SNB-19, CNS Cancer
DU-145 = assay: NCI human tumor cell panel: DU-145 (Prostate Cancer); format: cell-based; settings: DU-145, Prostate Cancer
786-0 = assay: NCI human tumor cell panel: 786-0 (Renal Cancer); format: cell-based; settings: 786-0, Renal Cancer
HOP-62 = assay: NCI human tumor cell panel: HOP-62 (Non-Small Cell Lung Cancer); format: cell-based; settings: HOP-62, Non-Small Cell Lung Cancer
[1] = read-out: Log10 GI50 (converted)
[2] = read-out: Log10 TGI (converted)

O=Cc1ccc(-c2ccc(-c3ccc(C=O)[se]3)[se]2)[se]1 [NSC 675245]
2.63 µM: GI50 (OVCAR-4; [1])
45.7 µM: IC (TGI) (NCI-H522; NCI-H522, read-out: Log10 TGI)
49 µM: GI50 (SF-295; [1])
67.6 µM: GI50 (786-0; [1])
51.3 µM: GI50 (HOP-62; [1])
0.0646 µM: GI50 (UACC-62; [1])
0.389 µM: GI50 (OVCAR-3; [1])
87.1 µM: GI50 (HS 578T; [1])
57.5 µM: GI50 (ACHN; [1])
1.05 µM: GI50 (U251; [1])
0.692 µM: GI50 (HCT-116; [1])
> 100 µM: GI50 (HOP-92; HOP-92, read-out: Log10 GI50 (converted)) | IC (TGI) (HOP-92; HOP-92, read-out: Log10 TGI) | GI50 (OVCAR-8; [1]) | IC (TGI) (OVCAR-8; [2]) | IC (TGI) (HCT-116; [2]) | GI50 (EKVX; [1]) | IC (TGI) (EKVX; [2]) | IC (TGI) (OVCAR-3; [2]) | GI50 (A549/ATCC; [1]) | IC (TGI) (A549/ATCC; [2]) | GI50 (MOLT-4; [1]) | IC (TGI) (MOLT-4; [2]) | GI50 (SN12C; [1]) | IC (TGI) (SN12C; [2]) | GI50 (NCI-H23; [1]) | IC (TGI) (NCI-H23; [2]) | GI50 (BT-549; [1]) | IC (TGI) (BT-549; [2]) | GI50 (HCT-15; [1]) | IC (TGI) (HCT-15; [2]) | GI50 (PC-3; [1]) | IC (TGI) (PC-3; [2]) | GI50 (SF-539; [1]) | IC (TGI) (SF-539; [2]) | GI50 (MDA-N; [1]) | IC (TGI) (MDA-N; [2]) | GI50 (LOX IMVI; [1]) | IC (TGI) (LOX IMVI; [2]) | IC (TGI) (SF-295; [2]) | IC (TGI) (ACHN; [2]) | IC (TGI) (SW-620; [2]) | GI50 (UO-31; [1]) | IC (TGI) (UO-31; [2]) | IC (TGI) (OVCAR-4; [2]) | GI50 (RPMI-8226; [1]) | IC (TGI) (RPMI-8226; read-out: Log10 TGI) | IC (TGI) (U251; [2]) | GI50 (MALME-3M; [1]) | IC (TGI) (MALME-3M; [2]) | GI50 (CCRF-CEM; [1]) | IC (TGI) (CCRF-CEM; [2]) | IC (TGI) (UACC-62; [2]) | GI50 (HT29; [1]) | IC (TGI) (HT29; [2]) | IC (TGI) (HS 578T; [2]) | IC (TGI) (SNB-19; [2]) | GI50 (DU-145; [1]) | IC (TGI) (DU-145; [2]) | IC (TGI) (786-0; [2]) | IC (TGI) (HOP-62; [2])
21.9 µM: GI50 (NCI-H522; NCI-H522, read-out: Log10 GI50 (converted))
29.5 µM: GI50 (SNB-19; [1])
4.17 µM: GI50 (SW-620; [1])
